Assay results as given in ChEMBL document CHEMBL4507268 (2021).

Tests used:
Conditions in all cases: Compound concentration 1000.0 nM
[1] = target: T1, Testis-specific serine/threonine-protein kinase 3 (Homo sapiens) (UniProt Q96PN8)
T1 sequence (whole entry): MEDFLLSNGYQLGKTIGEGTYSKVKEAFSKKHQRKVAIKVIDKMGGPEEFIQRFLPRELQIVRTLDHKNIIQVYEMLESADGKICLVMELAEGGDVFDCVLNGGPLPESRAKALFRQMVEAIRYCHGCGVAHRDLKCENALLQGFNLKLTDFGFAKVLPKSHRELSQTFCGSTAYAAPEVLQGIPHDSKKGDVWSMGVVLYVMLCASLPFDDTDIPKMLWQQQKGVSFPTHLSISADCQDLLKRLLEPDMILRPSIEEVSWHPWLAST

[2] = target: T2, Serine/threonine-protein kinase tousled-like 1 (Homo sapiens) (UniProt Q9UKI8)
T2 sequence (whole entry): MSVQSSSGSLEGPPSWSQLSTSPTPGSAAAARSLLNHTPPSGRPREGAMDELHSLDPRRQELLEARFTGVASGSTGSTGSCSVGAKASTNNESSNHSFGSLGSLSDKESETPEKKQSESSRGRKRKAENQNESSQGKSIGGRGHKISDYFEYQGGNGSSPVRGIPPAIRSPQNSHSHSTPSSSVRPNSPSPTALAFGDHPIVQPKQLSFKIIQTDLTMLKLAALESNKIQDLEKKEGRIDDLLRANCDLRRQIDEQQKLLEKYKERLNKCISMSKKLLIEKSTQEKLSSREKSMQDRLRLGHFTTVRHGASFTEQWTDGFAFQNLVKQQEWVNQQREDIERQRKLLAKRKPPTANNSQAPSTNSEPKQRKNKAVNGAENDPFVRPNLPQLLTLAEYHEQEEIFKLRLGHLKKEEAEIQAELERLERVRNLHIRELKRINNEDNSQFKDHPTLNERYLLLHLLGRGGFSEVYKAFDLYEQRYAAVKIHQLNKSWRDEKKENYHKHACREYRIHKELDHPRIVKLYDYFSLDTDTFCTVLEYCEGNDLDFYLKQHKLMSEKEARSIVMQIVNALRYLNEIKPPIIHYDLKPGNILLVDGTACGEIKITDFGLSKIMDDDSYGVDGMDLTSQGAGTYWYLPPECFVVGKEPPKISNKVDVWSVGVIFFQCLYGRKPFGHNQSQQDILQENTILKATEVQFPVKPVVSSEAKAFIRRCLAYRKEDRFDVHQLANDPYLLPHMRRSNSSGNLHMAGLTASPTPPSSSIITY

[3] = target: T3, Mitogen-activated protein kinase kinase kinase kinase 3 (Homo sapiens) (UniProt Q8IVH8)
T3 sequence (whole entry): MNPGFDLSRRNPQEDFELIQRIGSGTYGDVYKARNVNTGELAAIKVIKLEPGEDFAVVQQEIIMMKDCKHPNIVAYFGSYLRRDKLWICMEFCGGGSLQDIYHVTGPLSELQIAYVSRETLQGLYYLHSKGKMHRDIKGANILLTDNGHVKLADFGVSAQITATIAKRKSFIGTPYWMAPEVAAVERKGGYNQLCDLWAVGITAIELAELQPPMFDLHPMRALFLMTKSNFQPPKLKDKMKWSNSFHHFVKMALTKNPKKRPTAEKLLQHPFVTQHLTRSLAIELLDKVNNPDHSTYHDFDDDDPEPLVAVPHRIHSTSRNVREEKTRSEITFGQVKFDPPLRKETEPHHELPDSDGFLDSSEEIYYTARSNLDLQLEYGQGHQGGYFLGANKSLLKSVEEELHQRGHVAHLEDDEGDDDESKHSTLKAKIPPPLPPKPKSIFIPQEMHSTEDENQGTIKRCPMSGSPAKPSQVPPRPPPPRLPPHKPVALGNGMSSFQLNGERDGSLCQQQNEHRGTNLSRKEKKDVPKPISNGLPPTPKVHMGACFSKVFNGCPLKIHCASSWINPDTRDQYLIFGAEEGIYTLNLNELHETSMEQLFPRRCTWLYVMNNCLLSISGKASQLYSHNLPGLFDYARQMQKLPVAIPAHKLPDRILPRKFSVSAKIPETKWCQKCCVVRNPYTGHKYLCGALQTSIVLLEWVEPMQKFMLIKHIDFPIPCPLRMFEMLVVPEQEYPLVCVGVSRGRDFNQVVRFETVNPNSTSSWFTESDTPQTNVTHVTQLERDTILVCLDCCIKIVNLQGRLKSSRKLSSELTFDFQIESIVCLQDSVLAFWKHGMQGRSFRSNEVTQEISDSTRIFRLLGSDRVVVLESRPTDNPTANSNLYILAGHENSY

[4] = target: Tyrosine-protein kinase receptor UFO (Homo sapiens) (UniProt P30530)
[5] = target: Tyrosine-protein kinase BTK (Homo sapiens) (UniProt Q06187)
[6] = target: Ribosomal protein S6 kinase alpha-3 (Homo sapiens) (UniProt P51812)
[7] = test system: Tyrosine-protein kinase ABL1 (Homo sapiens), P00519 [Y253F]
[8] = target: Receptor-interacting serine/threonine-protein kinase 2 (Homo sapiens) (UniProt O43353)
[9] = target: Activin receptor type-2B (Homo sapiens) (UniProt Q13705)
[10] = target: Ephrin type-B receptor 6 (Homo sapiens) (UniProt O15197)
[11] = target: Serine/threonine-protein kinase WNK1 (Homo sapiens) (UniProt Q9H4A3)
[12] = target: Casein kinase II subunit alpha' (Homo sapiens) (UniProt P19784)
Casein kinase II subunit alpha' (Homo sapiens), sequence (P19784 whole entry, looked up): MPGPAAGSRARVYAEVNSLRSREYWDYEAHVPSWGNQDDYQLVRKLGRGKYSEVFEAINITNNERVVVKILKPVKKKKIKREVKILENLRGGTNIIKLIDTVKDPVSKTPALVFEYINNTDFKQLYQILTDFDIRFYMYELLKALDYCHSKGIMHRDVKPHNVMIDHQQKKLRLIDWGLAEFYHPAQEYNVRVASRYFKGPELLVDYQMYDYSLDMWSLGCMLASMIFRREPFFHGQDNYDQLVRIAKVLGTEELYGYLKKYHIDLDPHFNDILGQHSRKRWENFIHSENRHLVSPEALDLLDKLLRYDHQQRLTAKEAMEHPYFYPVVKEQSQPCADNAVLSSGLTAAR

Receptor-interacting serine/threonine-protein kinase 2 (Homo sapiens), sequence (O43353 whole entry): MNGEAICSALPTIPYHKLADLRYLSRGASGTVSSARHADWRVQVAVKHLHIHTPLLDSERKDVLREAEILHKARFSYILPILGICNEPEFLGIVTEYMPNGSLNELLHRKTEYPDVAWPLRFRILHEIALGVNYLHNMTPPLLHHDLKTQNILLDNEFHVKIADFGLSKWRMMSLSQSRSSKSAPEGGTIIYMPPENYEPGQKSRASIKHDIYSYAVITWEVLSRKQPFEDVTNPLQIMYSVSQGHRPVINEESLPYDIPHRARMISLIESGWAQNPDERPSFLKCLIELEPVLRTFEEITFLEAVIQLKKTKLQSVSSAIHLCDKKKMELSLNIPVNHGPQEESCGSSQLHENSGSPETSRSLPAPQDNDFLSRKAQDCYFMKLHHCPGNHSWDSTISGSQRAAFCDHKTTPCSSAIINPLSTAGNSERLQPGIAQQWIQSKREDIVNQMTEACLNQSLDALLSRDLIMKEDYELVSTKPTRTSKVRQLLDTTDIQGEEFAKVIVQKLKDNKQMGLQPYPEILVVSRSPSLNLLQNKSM
Tyrosine-protein kinase BTK (Homo sapiens), sequence (Q06187 whole entry): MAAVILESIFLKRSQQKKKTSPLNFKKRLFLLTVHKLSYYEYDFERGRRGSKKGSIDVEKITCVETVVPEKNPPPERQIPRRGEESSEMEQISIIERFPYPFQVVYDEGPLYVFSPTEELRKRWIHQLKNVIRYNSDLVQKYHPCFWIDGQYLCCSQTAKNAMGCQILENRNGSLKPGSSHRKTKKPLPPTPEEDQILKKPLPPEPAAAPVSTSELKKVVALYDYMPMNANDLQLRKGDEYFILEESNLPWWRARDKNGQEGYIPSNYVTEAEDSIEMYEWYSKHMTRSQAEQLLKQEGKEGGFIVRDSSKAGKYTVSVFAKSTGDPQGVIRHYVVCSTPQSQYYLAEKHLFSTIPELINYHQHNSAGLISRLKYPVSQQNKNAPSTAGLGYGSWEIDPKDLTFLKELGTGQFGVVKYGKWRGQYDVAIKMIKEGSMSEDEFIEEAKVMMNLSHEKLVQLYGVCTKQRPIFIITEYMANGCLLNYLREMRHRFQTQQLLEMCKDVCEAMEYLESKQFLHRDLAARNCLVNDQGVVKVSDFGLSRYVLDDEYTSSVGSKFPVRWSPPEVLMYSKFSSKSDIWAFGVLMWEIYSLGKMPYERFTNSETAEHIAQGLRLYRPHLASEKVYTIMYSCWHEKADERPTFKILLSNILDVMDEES
Ribosomal protein S6 kinase alpha-3 (Homo sapiens), sequence (P51812 whole entry): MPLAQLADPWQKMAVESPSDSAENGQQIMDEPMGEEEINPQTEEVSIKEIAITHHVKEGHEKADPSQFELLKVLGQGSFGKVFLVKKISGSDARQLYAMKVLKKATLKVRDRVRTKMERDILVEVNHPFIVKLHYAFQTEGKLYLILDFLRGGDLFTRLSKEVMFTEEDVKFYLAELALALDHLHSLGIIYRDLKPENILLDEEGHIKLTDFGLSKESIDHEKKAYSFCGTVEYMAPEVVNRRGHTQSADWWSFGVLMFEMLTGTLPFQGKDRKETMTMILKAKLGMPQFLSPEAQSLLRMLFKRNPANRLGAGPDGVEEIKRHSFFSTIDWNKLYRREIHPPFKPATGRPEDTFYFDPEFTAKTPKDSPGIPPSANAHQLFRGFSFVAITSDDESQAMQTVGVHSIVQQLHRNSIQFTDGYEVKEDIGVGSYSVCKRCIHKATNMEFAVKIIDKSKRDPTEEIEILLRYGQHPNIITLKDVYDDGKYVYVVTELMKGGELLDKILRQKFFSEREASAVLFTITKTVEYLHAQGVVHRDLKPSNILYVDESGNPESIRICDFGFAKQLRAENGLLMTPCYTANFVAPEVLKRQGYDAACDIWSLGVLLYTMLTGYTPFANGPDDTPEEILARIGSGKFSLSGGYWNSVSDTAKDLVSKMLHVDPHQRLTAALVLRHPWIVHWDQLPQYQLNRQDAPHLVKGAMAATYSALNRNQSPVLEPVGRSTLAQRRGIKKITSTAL
Serine/threonine-protein kinase WNK1 (Homo sapiens), sequence (Q9H4A3 whole entry, looked up): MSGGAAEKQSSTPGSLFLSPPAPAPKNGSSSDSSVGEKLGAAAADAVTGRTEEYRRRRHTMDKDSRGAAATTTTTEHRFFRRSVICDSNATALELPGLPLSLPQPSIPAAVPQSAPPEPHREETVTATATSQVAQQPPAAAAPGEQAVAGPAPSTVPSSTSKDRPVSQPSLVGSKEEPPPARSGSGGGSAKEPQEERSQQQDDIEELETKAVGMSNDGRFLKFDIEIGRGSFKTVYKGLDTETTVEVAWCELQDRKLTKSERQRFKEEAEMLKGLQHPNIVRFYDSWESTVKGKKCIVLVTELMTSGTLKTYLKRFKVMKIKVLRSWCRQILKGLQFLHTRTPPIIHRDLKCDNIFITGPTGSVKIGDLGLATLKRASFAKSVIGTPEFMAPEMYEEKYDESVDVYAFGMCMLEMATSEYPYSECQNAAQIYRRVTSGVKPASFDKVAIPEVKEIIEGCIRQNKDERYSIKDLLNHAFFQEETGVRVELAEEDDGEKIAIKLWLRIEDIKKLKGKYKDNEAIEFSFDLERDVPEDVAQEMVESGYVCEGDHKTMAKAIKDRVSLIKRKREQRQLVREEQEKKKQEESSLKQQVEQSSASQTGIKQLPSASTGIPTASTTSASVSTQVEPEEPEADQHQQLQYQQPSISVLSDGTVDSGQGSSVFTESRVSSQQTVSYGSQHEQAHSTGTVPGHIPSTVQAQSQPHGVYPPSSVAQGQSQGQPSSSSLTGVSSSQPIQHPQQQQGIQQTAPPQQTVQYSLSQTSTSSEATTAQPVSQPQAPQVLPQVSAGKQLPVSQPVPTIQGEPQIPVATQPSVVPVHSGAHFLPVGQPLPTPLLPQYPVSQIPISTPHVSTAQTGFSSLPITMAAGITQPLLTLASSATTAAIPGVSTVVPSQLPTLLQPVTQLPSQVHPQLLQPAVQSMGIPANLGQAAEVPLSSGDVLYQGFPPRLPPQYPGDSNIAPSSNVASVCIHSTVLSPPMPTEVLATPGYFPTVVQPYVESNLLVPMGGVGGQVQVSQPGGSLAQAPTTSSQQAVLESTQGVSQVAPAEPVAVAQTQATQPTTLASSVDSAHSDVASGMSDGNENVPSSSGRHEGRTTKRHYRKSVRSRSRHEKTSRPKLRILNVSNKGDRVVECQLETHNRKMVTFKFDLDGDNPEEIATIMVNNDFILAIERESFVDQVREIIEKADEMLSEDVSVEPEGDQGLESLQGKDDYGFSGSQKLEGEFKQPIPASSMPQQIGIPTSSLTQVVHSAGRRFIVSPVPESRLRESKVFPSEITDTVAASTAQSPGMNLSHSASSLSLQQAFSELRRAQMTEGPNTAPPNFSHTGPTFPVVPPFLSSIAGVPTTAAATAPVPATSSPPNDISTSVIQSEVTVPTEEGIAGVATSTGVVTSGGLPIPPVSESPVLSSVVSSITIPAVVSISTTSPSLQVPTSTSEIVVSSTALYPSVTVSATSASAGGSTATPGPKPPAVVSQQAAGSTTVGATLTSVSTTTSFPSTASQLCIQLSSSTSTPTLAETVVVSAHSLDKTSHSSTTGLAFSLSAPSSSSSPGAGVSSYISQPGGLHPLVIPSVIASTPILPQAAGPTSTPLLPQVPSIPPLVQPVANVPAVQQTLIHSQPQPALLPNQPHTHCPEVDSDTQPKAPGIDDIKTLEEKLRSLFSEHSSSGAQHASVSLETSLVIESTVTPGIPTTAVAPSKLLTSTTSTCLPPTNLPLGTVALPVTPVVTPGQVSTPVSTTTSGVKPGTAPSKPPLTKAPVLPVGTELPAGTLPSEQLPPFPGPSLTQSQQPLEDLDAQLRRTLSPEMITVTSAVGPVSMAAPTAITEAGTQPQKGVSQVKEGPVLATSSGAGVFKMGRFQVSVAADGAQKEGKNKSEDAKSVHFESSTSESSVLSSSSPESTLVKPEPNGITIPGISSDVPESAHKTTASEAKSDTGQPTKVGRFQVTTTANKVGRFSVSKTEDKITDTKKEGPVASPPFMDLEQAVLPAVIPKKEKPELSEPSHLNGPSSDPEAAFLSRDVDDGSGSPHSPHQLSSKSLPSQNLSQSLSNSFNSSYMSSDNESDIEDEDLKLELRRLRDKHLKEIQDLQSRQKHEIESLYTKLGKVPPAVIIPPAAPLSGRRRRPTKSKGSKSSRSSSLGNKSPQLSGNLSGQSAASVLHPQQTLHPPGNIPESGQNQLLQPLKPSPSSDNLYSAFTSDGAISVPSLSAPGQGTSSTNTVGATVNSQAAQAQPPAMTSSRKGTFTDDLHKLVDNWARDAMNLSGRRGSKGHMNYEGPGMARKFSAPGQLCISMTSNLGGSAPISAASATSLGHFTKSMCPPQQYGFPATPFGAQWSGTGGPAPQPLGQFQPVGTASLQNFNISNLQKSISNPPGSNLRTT

Row | SMILES | residual activity [1] | residual activity [2] | residual activity [3] | residual activity [4] | residual activity [5] | residual activity [6] | residual activity [7] | residual activity [8] | residual activity [9] | residual activity [10] | residual activity [11] | residual activity [12]
1 | Cc1nc(C2CCN(C(=O)c3ccc(OC(F)(F)F)cc3N)CC2)c2ncc(N3CCN(C)CC3)cc2n1 [BAY-693] | 100% | 100% | 100% | 100% | 87% | 82% | 98% | 94% | 100% | 100% | 94% | 85%
2 | CN1CCN(c2cnc3c(C4CCN(C(=O)c5ccc(OC(F)(F)F)cc5N)CC4)ncnc3c2)CC1 [BAY-885] | 68% | 100% | 100% | 78% | 100% | 80% | 100% | 100% | 100% | 18% | 100% | 93%
